The values below come from US12516056B2, “Compounds for inhibition of janus kinase 1” (MANKIND PHARMA LTD., priority 2019, dated 2026).

The structures appear in SMILES notation. Read-outs that look alike come from different tables or passages of the source.

For test [1], the system named is STAT5 phosphorylation by GMCSF in TF-1 cells. Briefly: JAK cellular assay: STAT5 phosphorylation by GMCSF in TF-1 cells (HTRF). Format: cell-based. As to conditions: Homo sapiens. In short, it runs like this:
(§1)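 Phospho-STAT3 (IL-6, 30 ng/ml) and phospho-STAT5 (GMCSF, 5 ng/ml) read by HTRF in lysates after 20 min cytokine exposure, minus unstimulated-cell background. Cells were serum-starved overnight, plated at 120,000/well, given compound 30 min at 37 °C beforehand; DMSO 0.2% final.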

The test system of test [2] is STAT3 phosphorylation by IL-6 in TF-1 cells. Briefly: JAK cellular assay: STAT3 phosphorylation by IL-6 in TF-1 cells (HTRF). Format: cell-based. As to conditions: Homo sapiens. In outline:
as §1
(In general: In TR-FRET formats the signal depends on donor and acceptor labels being close together.)

Test [3] relates to Imiquimod induced dermatitis in mice. The test can be described thus: Mouse model of Imiquimod induced psoriasis. Format: in vivo, Female BALB/c mice. As to conditions: 3% topical, QD; IMQ induced psoriasis, mice. How it is done: Imiquimod (IMQ) induced dermatitis closely resembles human psoriasis lesions not only with regard to phenotypic and histological characteristics but also in the development of the lesions. IMQ is a ligand for toll-like receptor 7 (TLR7) and TLR8, and is a potent immune activator. […] Migration of activated dermal dendritic cells to lymph nodes in skin triggers a sequence of events leading to late phase of psoriasis. Compounds described herein are tested for JAK inhibition driven efficacy in Imiquimod induced dermatitis in mice.
Female BALB/c mice were topically dosed with 3% cream formulation containing test compounds. After four hours of test compound administration, 5% Imiquimod was applied on back skin and right ear for five days. On day 6, post dosing with test compounds, the severity of psoriasis was monitored and graded following Psoriasis Area and Severity Index (PASI). Efficacies of the compounds were evaluated based on PASI score. Redness, thickness and scaling of back skin and ear were assessed among the groups for scoring.

Test [4] has as its system STAT5 phosphorylation by IL-2 in HT-2 cells. Briefly: STAT5 phosphorylation by IL-2 in HT-2 cells (HTRF). Format: cell-based. In short, it runs like this:
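Readout is HTRF detection of phospho-STAT5 in lysates, corrected for signal from unstimulated cells. Before lysis, HT-2 cells starved in 10% FBS medium received compound for 30 min (0.2% DMSO final, 37 °C), followed by 50 U/ml recombinant human IL-2 for 20 min.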

Test [5] concerns IFN-γ production in NK 92 cells by IL-12. The test can be described thus: IFN-γ production in NK 92 cells by IL-12 (ELISA). As to conditions: NK92, IFN-γ detection from cell supernatants, read-out: Cell based IC50 (μM) NK-92/IL-12*. How it is done: NK 92 cells were cultured in medium without IL-2 for overnight. Next day, 5000 cells per well NK 92 cells were seeded in a 96 well plate. Compounds were added to cells and incubated for 1 hour. Later IL-12, 10 U/ml was added to cells and incubated for overnight. Supernatant was collected from the wells and IFN-7 secretion was measured by using human IFN-7 ELISA kit. Absorbance was measured at 450 nm in BMG FLUOstar. Background signal obtained from cells which were not activated with cytokines, was subtracted from vehicle controls and compound treated wells.

Test [6] concerns the target T1, Recombinant JAK3 (Homo sapiens, UniProt P52333).
T1 construct: purchased Carna Biosciences
T1 sequence (P52333 1-1124): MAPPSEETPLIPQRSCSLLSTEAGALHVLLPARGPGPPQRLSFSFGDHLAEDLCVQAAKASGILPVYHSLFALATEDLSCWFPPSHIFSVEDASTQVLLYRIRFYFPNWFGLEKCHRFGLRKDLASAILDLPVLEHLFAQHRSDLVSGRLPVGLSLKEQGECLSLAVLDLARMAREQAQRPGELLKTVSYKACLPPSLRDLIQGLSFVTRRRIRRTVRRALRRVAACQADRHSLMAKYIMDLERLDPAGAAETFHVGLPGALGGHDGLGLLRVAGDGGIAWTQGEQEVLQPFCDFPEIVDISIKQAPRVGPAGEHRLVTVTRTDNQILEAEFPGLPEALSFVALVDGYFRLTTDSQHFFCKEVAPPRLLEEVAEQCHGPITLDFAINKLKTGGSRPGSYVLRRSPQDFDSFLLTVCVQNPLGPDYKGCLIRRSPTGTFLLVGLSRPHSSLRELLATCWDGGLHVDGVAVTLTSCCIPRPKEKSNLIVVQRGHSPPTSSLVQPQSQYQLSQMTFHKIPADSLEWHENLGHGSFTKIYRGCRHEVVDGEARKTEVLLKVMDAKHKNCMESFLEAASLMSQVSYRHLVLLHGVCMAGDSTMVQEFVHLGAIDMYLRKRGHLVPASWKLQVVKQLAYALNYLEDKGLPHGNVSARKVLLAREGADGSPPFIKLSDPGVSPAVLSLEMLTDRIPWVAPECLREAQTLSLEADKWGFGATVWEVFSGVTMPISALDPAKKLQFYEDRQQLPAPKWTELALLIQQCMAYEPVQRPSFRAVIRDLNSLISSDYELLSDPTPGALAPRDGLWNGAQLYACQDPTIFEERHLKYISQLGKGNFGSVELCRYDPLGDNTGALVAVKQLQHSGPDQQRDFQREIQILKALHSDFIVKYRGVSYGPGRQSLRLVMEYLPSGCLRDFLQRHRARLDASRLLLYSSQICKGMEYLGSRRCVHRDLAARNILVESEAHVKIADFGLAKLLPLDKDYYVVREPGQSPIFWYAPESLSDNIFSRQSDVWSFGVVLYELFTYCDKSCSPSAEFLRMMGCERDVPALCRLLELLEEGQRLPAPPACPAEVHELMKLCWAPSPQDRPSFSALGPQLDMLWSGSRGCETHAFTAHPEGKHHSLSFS
The test can be described thus: JAK biochemical assay (LANCE Ultra TR-FRET), JAK3. In short, it runs like this: (§2)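 % inhibition relative to vehicle was derived from TR-FRET signal proportional to ULight-substrate phosphorylation. Reactions used recombinant kinase in HEPES pH 7.5 buffer containing EGTA, MgCl2, DTT and Tween-20.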

Test [7] concerns the target T2, Recombinant TYK2 (Homo sapiens, UniProt P29597).
T2 construct: purchased Carna Biosciences
Briefly: JAK biochemical assay (LANCE Ultra TR-FRET), TYK2. In outline:
as §2

The test system of test [8] is collagen induced mouse arthritis model. The test can be described thus: Mouse model of rheumatoid arthritis (collagen induced arthritis). As to conditions: orally dosed, QD for 21 days; reference filgotinib. Format: in vivo. The text has this: Rheumatoid arthritis (RA) is an autoimmune disease that can cause joint pain and damage throughout the body. Several cytokines such as IL-6 and IFN-γ activate the Janus kinase/signal transducers and activators of transcription (JAK/STAT) pathway. Inhibition of JAK/STAT pathway is considered as one of the therapeutic options for treatment of rheumatoid arthritis. Rodent models of arthritis can be used to evaluate the therapeutic potential of compounds dosed preventatively or therapeutically. These models include but are not limited to mouse or rat collagen-induced arthritis, rat adjuvant-induced arthritis, and collagen antibody-induced arthritis.
Compounds described herein are tested for JAK/STAT pathway inhibition driven efficacy in collagen induced mouse arthritis model. Compounds were orally dosed, QD for 21 days and at the end of the study, clinical symptoms, body weight and histopathology of ankle and paws were measured. Arthritis score was calculated for the compounds as well as reference standard, filgotinib.

The target of test [9] is T3, Recombinant JAK1 (Homo sapiens, UniProt P23458).
T3 construct: purchased Carna Biosciences
Briefly: JAK biochemical assay (LANCE Ultra TR-FRET), JAK1. In short, it runs like this: as §2

The target in test [10] is T4, Recombinant JAK2 (Homo sapiens, UniProt O60674).
T4 construct: purchased Carna Biosciences
The test can be described thus: JAK biochemical assay (LANCE Ultra TR-FRET), JAK2. As to conditions: read-out: Biochemical IC50 (nM) JAK2. In outline: as §2

T2 sequence (P29597 whole entry): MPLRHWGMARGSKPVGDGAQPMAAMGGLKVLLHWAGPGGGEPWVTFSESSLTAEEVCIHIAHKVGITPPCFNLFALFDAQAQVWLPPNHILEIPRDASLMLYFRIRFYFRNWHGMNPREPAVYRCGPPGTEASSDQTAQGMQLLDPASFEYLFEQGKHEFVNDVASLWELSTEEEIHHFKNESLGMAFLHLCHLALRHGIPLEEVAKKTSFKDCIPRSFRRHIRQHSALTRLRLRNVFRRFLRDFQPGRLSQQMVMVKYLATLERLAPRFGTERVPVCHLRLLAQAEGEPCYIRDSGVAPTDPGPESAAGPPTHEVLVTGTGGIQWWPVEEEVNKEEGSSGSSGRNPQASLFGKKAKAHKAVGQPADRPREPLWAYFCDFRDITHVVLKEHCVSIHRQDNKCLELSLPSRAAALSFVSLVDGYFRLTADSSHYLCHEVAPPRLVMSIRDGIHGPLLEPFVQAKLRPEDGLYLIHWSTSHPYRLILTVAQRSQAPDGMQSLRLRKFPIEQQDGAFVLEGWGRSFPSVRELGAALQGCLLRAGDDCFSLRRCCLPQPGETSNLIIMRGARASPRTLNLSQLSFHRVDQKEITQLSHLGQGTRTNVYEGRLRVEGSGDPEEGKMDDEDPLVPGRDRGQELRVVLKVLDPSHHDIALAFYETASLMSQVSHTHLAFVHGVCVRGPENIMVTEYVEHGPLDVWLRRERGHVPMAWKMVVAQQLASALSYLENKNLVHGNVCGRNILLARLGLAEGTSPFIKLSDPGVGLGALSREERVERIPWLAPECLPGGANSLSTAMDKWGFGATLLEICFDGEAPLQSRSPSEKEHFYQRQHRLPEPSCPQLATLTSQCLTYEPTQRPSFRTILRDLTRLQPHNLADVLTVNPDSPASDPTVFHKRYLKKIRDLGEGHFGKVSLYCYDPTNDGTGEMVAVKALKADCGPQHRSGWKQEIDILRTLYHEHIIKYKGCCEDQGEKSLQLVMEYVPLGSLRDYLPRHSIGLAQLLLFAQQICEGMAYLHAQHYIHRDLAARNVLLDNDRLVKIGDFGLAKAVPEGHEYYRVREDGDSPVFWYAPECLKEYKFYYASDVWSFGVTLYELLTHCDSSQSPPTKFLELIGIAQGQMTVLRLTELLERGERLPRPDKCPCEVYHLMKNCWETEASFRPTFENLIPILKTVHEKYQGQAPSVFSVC
T3 sequence (P23458 whole entry): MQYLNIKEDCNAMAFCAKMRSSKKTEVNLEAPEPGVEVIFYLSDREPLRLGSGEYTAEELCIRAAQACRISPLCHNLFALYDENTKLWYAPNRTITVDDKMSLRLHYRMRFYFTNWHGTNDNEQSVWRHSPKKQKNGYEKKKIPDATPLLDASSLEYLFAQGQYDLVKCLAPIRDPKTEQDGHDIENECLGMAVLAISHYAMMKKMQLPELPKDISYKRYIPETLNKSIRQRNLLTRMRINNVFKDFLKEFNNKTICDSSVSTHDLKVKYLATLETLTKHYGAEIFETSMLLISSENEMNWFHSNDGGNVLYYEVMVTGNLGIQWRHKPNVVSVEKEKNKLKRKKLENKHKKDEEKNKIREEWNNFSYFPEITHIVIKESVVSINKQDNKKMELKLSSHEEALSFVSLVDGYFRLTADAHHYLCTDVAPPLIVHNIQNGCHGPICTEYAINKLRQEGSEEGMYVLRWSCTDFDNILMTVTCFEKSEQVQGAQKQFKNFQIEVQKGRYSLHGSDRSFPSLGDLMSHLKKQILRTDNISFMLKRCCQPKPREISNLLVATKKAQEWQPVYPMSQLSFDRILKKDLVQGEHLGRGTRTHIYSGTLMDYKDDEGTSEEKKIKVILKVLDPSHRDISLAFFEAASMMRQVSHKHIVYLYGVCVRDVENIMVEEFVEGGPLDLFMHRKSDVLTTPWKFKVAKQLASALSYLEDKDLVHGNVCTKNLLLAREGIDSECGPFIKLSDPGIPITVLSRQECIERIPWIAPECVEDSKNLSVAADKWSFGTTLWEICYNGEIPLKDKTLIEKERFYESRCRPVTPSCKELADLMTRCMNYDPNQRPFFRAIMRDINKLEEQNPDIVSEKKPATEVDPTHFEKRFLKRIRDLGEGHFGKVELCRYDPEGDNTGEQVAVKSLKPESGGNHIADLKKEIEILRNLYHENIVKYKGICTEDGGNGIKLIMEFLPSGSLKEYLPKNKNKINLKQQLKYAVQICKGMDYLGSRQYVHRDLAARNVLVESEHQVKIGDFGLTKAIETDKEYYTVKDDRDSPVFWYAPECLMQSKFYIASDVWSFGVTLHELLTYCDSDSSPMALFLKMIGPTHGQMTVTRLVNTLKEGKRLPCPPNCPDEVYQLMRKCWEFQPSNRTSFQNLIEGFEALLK
T4 sequence (O60674 whole entry): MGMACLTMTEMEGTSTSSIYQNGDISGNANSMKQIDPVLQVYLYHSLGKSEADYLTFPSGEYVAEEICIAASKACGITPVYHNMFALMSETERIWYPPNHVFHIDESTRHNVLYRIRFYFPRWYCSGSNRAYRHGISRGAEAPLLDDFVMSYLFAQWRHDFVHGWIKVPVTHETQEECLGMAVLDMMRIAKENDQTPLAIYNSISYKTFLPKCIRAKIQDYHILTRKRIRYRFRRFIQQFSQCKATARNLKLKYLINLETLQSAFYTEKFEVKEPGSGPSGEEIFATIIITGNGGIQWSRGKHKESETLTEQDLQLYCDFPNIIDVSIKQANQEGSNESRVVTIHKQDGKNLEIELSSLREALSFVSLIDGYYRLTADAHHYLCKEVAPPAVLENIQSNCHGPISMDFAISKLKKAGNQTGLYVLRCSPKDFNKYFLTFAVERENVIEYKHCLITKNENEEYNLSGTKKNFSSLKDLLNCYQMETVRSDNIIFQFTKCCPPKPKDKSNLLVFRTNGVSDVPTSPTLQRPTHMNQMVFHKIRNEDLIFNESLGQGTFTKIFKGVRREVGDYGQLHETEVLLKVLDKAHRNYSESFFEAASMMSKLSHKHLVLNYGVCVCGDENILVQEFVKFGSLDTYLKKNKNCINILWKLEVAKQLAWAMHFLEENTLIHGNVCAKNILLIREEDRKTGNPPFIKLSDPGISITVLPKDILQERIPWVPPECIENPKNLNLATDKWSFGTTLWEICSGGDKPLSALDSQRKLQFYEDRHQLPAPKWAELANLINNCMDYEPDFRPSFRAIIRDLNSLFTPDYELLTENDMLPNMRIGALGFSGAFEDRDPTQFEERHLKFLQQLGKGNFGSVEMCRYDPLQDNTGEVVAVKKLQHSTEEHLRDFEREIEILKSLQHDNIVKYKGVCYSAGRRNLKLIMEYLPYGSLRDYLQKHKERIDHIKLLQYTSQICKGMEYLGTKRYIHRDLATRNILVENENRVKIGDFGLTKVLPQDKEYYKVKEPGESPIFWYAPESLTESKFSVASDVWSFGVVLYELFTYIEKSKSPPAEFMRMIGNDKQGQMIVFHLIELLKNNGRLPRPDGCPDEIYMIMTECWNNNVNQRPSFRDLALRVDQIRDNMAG

For the compound `O=C(Nc1nc2cccc(-c3ccc(CN4CCS(=O)(=O)CC4)cc3)n2n1)C1CC1` [Filgotinib, filgotinib, reference compound], the IC50 in [1] (TF-1, read-out: Cell based IC50 (μM) TF-1/GM-CSF) was 3.4 µM; in [2] (TF-1, read-out: Cell based IC50 (μM) TF-1/IL-6), 0.6 µM; in test [4] (HT2, read-out: Cell based IC50 (μM) HT-2/IL-2) it was 0.95 µM; in test [5], above 10 µM. Moreover, the back skin thickness entry in test [3] is reported as “significant decrease”. For the same compound, in test [3], the “cumulative psoriasis score compared to vehicle” value was “statistically significant decrease”. Further, the ear thickness result in test [3] is “significant decrease”.

As for `CS(=O)(=O)CC[C@@H](c1ccc(-n2cc(-c3ccnc4[nH]cnc34)cn2)nc1)C(F)(F)F` [Example 1181, 7-(1-(5-((S)-1,1,1-trifluoro-4-(methylsulfonyl)butan-2-yl)pyridin-2-yl)-1H-pyrazol-4-yl)-3H-imidazo[4,5-b]pyridine], the IC50 in test [1] (TF-1 cells, GM-CSF stimulation, read-out: Cell based IC50 (μM) TF-1/GM-CSF) is above 10 µM; in test [1] (TF-1 cells, GMCSF 5 ng/ml, pSTAT5 HTRF, read-out: Cell Based Assay (μM) TF-1/GMCSF/pSTAT5), above 1 µM; in [6] (read-out: Biochemical IC50 (nM) JAK3), 42 nM; in [6] (recombinant JAK3, TR-FRET, read-out: Biochemical Assay (μM) JAK3), below 100 nM; in test [2] (TF-1, TF-1 cells, IL-6 30 ng/ml, pSTAT3 HTRF, read-out: Cell Based Assay (μM) TF-1/IL-6/pSTAT3) it was above 0.5 µM; in test [2] (TF-1, TF-1 cells, IL-6 stimulation, read-out: Cell based IC50 (μM) TF-1/IL-6), 0.35 µM. Besides, the IC50 in test [7] (read-out: Biochemical IC50 (nM) TYK2) was above 1 nM; in test [7] (recombinant TYK2, TR-FRET, read-out: Biochemical Assay (μM) TYK2), above 1000 nM; in [4] (HT2, HT-2 cells, IL-2 50 U/ml, pSTAT5 HTRF, read-out: Cell Based Assay (μM) HT-2/IL-2/pSTAT5), above 1 µM; in test [4] (HT2, HT-2 cells, IL-2 stimulation, read-out: Cell based IC50 (μM) HT-2/IL-2), 0.9 µM; in test [5], above 10 µM; in [9] (read-out: Biochemical IC50 (nM) JAK1), 15 nM. Further, the IC50 in test [9] (recombinant JAK1, TR-FRET, read-out: Biochemical Assay (μM) JAK1) was below 100 nM; in test [10] it was 105 nM. Further, the “efficacy (arthritis score) in collagen induced mouse arthritis model” value in test [8] is “very good efficacy”.
